Molecules are shown by their SMILES.

The target in experiment [1] is T1, GST tagged LXRbeta LBD (ligand binding domain) (Homo sapiens, UniProt P55055).
T1 construct: purchased Invitrogen pv4658.pps
T1 sequence (P55055 222-460 limits assumed): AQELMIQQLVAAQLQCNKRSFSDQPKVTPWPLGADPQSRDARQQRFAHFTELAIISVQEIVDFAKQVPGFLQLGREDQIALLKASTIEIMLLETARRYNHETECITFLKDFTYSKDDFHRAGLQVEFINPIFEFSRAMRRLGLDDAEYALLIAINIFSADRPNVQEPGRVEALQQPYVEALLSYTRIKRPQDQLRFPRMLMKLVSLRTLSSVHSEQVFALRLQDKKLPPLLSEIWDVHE
The experiment is described as follows: LanthaScreen TR-FRET Liver X Receptor Coactivator Assay, LXR beta-LBD (co-activator recruitment; IP and % Emax relative to T0901317). It is filed as biochemical. To be noted: for EC50: Inflection Point of co-activator recruitment, LXR beta-LBD, TR-FRET; for Emax: efficacy at max dose in relation to reference T0901317, LXR beta-LBD, read-out: LXR beta actiivty at max dose (%). In short, it runs like this:
(§1)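 TR-FRET coactivator recruitment; LBD + cpd, then fluorescein coactivator peptide/Tb anti-GST Ab mix; RT incubation; IP and Emax vs T0901317.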

Experiment [2] concerns the target T2, GST tagged LXRalpha LBD (ligand binding domain) (Homo sapiens, UniProt Q13133).
T2 construct: purchased Invitrogen pv4655
T2 sequence (Q13133 209-447 limits assumed): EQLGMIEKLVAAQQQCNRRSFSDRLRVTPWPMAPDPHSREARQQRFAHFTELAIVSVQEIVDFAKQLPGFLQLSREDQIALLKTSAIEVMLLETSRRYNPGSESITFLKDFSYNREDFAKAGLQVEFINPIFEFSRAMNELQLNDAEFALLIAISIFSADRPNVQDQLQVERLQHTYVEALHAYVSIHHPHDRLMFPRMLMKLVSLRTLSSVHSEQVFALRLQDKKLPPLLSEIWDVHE
The experiment can be described thus: LanthaScreen TR-FRET Liver X Receptor Coactivator Assay, LXR alpha-LBD (co-activator recruitment; IP and % Emax relative to T0901317). The class given is biochemical. Particulars: for LXR alpha IP (nM) / EC50: Inflection Point of co-activator recruitment, LXR alpha-LBD, TR-FRET; for Emax: efficacy at max dose in relation to reference T0901317, LXR alpha-LBD, read-out: LXR alpha actiivty at max dose (%). In short, it runs like this: as §1

For `COc1cccc([C@@](O)(C(=O)NC2(CCC3CCN(c4ccc(C(=O)N(C)C)c(Cl)n4)CC3)CC2)C(F)(F)F)c1` [Example 8-1, (R)-2-chloro-N,N-dimethyl-6-(4-(2-(1-(3,3,3-trifluoro-2-hydroxy-2-(3-methoxyphenyl)propanamido)cyclopropyl)ethyl)piperidin-1-yl)nicotinamide], in experiment [1], the concentration giving a half-maximal response (EC50) amounted to 201 nM and the Emax worked out at 82%. Besides, in experiment [2], the “LXR alpha IP (nM)” value was “No IP” and the Emax was found to be 16%.
For `COc1cccc([C@@](O)(C(=O)N(C)CCCC2(C)CCN(c3ccc(C(=O)N(C)C)c(Cl)n3)CC2)C(F)(F)F)c1` [Example 9-1, (R)-2-chloro-N,N-dimethyl-6-(4-methyl-4-(3-(3,3,3-trifluoro-2-hydroxy-2-(3-methoxyphenyl)-N-methylpropanamido)propyl)piperidin-1-yl)nicotinamide], in that order: 16 nM, 37%, “No IP” and 0%.
For the compound `CN(C)C(=O)c1ccc(N2CCC(C)(CCCN(C)C(=O)[C@](O)(c3ccccc3)C(F)(F)F)CC2)nc1Cl` [Example 9-2, (R)-2-chloro-N,N-dimethyl-6-(4-methyl-4-(3-(3,3,3-trifluroo-2-hydroxy-N-methyl-2-phenylpropanamido)propyl)piper-idin-1-yl)nicotinamide], in experiment [1], the EC50 was found to be 18 nM and the Emax is 47%. Besides, in experiment [2], the concentration for a half-maximal effect (EC50) amounted to 441 nM and the Emax stood at 21%.
For `CN(C)C(=O)c1ccc(N2CCC(C)(CCCN(C)C(=O)[C@]3(c4ccccc4)CCCO3)CC2)nc1Cl` [Example 9-3, (R)-2-chloro-N,N-dimethyl-6-(4-methyl-4-(3-(N-methyl-2-phenyltetrahydrofuran-2-carboxamido)propyl)piperidin-1-yl)nicotinamide], in that order: 14 nM, 94%, 198 nM and 31%.
As to `CN(C)C(=O)c1ccc(N2CCC(C)(CCCN(C)C(=O)[C@@]3(c4ccccc4)CCCO3)CC2)nc1Cl` [Example 9-4, (S)-2-chloro-N,N-dimethyl-6-(4-methyl-4-(3-(N-methyl-2-phenyltetrahydrofuran-2-carboxamido)propyl)piperidin-1-yl)nicotinamide], in experiment [1], the midpoint of the response, the EC50, lay at 63 nM and the Emax stood at 67%. Further, in experiment [2], the “LXR alpha IP (nM)” value is listed as “No IP” and the Emax turned out to be 14%.
As for `CN(C)C(=O)c1ccc(N2CCC(C)(CCCN(C)C(=O)[C@](O)(c3cccc(OC(F)(F)F)c3)C(F)(F)F)CC2)nc1Cl` [Example 9-5, (R)-2-chloro-N,N-dimethyl-6-(4-methyl-4-(3-(3,3,3-trifluoro-2-hydroxy-N-methyl-2-(3-(trifluoromethoxy)phenyl)pro-panamido)propyl)piperidin-1-yl)nicotinamide], in experiment [1], the half-maximal effective concentration (EC50) came out at 43 nM and the Emax worked out at 38%. For the same compound, in experiment [2], the “LXR alpha IP (nM)” value is listed as “No IP” and the Emax is 0%.
Consider `COc1cccc([C@@](O)(C(=O)N(C)CCCC2(C)CCN(c3ccc(C(=O)N(C)C)c(Cl)c3)CC2)C(F)(F)F)c1` [Example 9-6, (R)-2-chloro-N,N-dimethyl-4-(4-methyl-4-(3-(3,3,3-trifluoro-2-hydroxy-2-(3-methoxyphenyl)-N-methylpropanamido)propyl)piper-idin-1-yl)benzamide], for which, in experiment [1], the EC50 was determined as 136 nM and the Emax was found to be 20%. In addition, in experiment [2], the “LXR alpha IP (nM)” value is given as “No IP” and the Emax was found to be 0%.
As to `CN(C)C(=O)c1ccc(N2CCC(C)(CCCN(C)C(=O)[C@](O)(c3ccccc3)C(F)(F)F)CC2)cc1Cl` [Example 9-7, (R)-2-chloro-N,N-dimethyl-4-(4-methyl-4-(3-(3,3,3-trifluoro-2-hydroxy-N-methyl-2-phenylpropanamido)propyl)piper-idin-1-yl)benzamide], in experiment [1], the EC50 stood at 78 nM and the Emax worked out at 42%. Moreover, in experiment [2], the response was half-maximal at 921 nM (EC50) and the Emax stood at 19%.
Take `COc1cccc([C@@](O)(C(=O)Nc2ccc(C3CCN(c4ccc(C(=O)N(C)C)c(Cl)n4)CC3)cc2)C(F)(F)F)c1` [Example 10-1, (R)-2-chloro-N,N-dimethyl-6-(4-(4-(3,3,3-trifluoro-2-hydroxy-2-(3-methoxyphenyl)propanamido)phenyl)piperidin-1-yl)nicotinamide]: in experiment [1], the midpoint of the response, the EC50, lay at 1350 nM and the Emax turned out to be 65%. In experiment [2], the “LXR alpha IP (nM)” value is on record as “No IP” and the Emax was 0%.
Take `CNC(=O)c1ccc(N2CCC(c3ccc(NC(=O)[C@](O)(c4cccc(OC)c4)C(F)(F)F)cc3)CC2)cc1Cl` [Example 10-2, (R)-2-chloro-N-methyl-4-(4-(4-(3,3,3-trifluoro-2-hydroxy-2-(3-methoxyphenyl)propanamido)phenyl)piperidin-1-yl)benzamide]: in experiment [1], the 50% effective concentration (EC50) was determined as 3730 nM and the Emax was 40%. In experiment [2], the “LXR alpha IP (nM)” value is on record as “No IP” and the Emax is 0%.
On the same counts, the results for `COc1cccc([C@@](O)(C(=O)Nc2ccc(C3CCN(c4ccc(C(=O)N(C)C)c(Cl)c4)CC3)cc2)C(F)(F)F)c1` [Example 10-3, (R)-2-chloro-N,N-dimethyl-4-(4-(4-(3,3,3-trifluoro-2-hydroxy-2-(3-methoxyphenyl)propanamido)phenyl)piperidin-1-yl)benzamide] are 1330 nM, 67%, “No IP” and 18%.
On the same counts, the results for `COc1cccc([C@@](O)(C(=O)Nc2cccc(C3CCN(c4ccc(C(=O)N(C)C)c(Cl)n4)CC3)c2)C(F)(F)F)c1` [Example 10-4, (R)-2-chloro-N,N-dimethyl-6-(4-(3-(3,3,3-trifluoro-2-hydroxy-2-(3-methoxyphenyl)propanamido)phenyl)piperidin-1-yl)nicotinamide] are 649 nM, 49%, “No IP” and 0%.
In the case of `CN(C)C(=O)c1ccc(N2CCC(CC3CC(NC(=O)[C@](O)(c4ccccc4)C(F)(F)F)C3)CC2)nc1Cl` (stereo partly drawn) [Example 11-2, (R)-2-chloro-N,N-dimethyl-6-(4-((3-(3,3,3-trifluoro-2-hydroxy-2-phenylpropanamido)cyclobutyl)methyl)piperidin-1-yl)nicotinamide], in experiment [1], a half-maximal response (EC50) required 273 nM and the Emax is 118%. Further, in experiment [2], the midpoint of the response, the EC50, lay at 2390 nM and the Emax was found to be 28%.
Regarding `CNC(=O)c1ccc(N2CCC(CC3CC(NC(=O)[C@](O)(c4ccccc4)C(F)(F)F)C3)CC2)cc1Cl` (stereo partly drawn) [Example 11-3, (R)-2-chloro-N-methyl-4-(4-((3-(3,3,3-trifluoro-2-hydroxy-2-phenylpropanamido)cyclobutyl)methyl)piperidin-1-yl)benzamide], in experiment [1], it took 508 nM to reach a half-maximal effect (EC50) and the Emax amounted to 93%. For the same compound, in experiment [2], the EC50 turned out to be 6010 nM and the Emax was 22%.
Turning to `CN(C)C(=O)c1ccc(N2CCC(CC3CC(NC(=O)[C@](O)(c4ccccc4)C(F)(F)F)C3)CC2)cc1Cl` (stereo partly drawn) [Example 11-4, (R)-2-chloro-N,N-dimethyl-4-(4-((3-(3,3,3-trifluoro-2-hydroxy-2-phenylpropanamido)cyclobutyl)methyl)piperidin-1-yl)benzamide], in experiment [1], a half-maximal effect (EC50) was put at 270 nM and the Emax worked out at 85%. Besides, in experiment [2], the “LXR alpha IP (nM)” value is “No IP” and the Emax turned out to be 14%.
For `CNC(=O)c1ccc(N2CCC(CC3CC(NC(=O)[C@](O)(c4cccc(OC)c4)C(F)(F)F)C3)CC2)cc1Cl` (stereo partly drawn) [Example 11-5, (R)-2-chloro-N-methyl-4-(4-((3-(3,3,3-trifluoro-2-hydroxy-2-(3-methoxyphenyl)propanamido)cyclobutyl)methyl)piperidin-1-yl)benzamide], in that order: 653 nM, 53%, “No IP” and 7%.
Consider `COc1cccc([C@@](O)(C(=O)NC2CC(CC3CCN(c4ccc(C(=O)N(C)C)c(Cl)c4)CC3)C2)C(F)(F)F)c1` (stereo partly drawn) [Example 11-6, (R)-2-chloro-N,N-dimethyl-4-(4-((3-(3,3,3-trifluoro-2-hydroxy-2-(3-methoxyphenyl)propanamido)cyclobutyl)methyl)piperidin-1-yl)benzamide], for which, in experiment [1], the concentration for a half-maximal effect (EC50) amounted to 561 nM and the Emax came out at 54%. Moreover, in experiment [2], the “LXR alpha IP (nM)” value is “No IP” and the Emax stood at 3%.
For `CN(C)C(=O)c1ccc(N2CCC(F)(CCCN(C)C(=O)[C@](O)(c3ccccc3)C(F)(F)F)CC2)cc1Cl` [Example 12-1, (R)-2-chloro-4-(4-fluoro-4-(3-(3,3,3-trifluoro-2-hydroxy-N-methyl-2-phenylpropanamido)propyl)piperidin-1-yl)-N,N-dimethylbenzamide], in that order: 266 nM, 44%, “No IP” and 12%.
